Source: patent US3986862A, “Emulsifiable liquid concentrates containing 4-amino-6-t-butyl-3-(methylthio)-1,2,4-triazin-5-one and 2-chloro-N-(2,6-diethylphenyl)-N-methoxymethylacetamide” (E. I. Du Pont de Nemours and Company, priority 1974, dated 1976)

Format: physicochemical
Description: The unexpected solvent synergism between alachlor, metribuzin and chlorobenzene is illustrated in the Table below. […] When metribuzin is the only material in chlorobenzene only 4% can be held in solution at -6° C. This is equivalent to about 0.35 lbs. metrubuzin/gallon. Solutions more concentrated than that could not be stored at the commercially important warehousing conditions at or near the conventional freezing temperatures (32° F. or 0° C.). […] These concentrations represent 0.8 lbs. of metribuzin and 3.2 lbs. of alachlor per gallon.
SOLUBILITY OF METRIBUZIN AT LOW TEMPERATURES IN
LASSO* AND/OR CHLOROBENZENE

[1] = metribuzin the only material in chlorobenzene, at -6° C.

SMILES: CSc1nnc(C(C)(C)C)c(=O)n1N [Metribuzin, 4-amino-6-t-butyl-3-(methylthio)-1,2,4-triazin-5-one]
- Incipient Crystallization Temperature (4% metribuzin, 0% alachlor, solvent chlorobenzene): -6 °C
- amount of metribuzin that can be held in solution [1]: 4%
- amount of metribuzin that can be held in solution, equivalent [1]: about 0.35 lbs. metrubuzin/gallon
